From article PMC2649009 (Journal of medicinal chemistry, 2008)
Where “and” joins values, the source holds several entries; their conditions need not be identical. Equal values may be shown once.

The molecules below were run against T1, human GVIA iPLA2 (Homo sapiens, UniProt O60733) (assay: mixed micelle-based modified Dole assay, GVIA iPLA2 inhibition). Conditions: mole fraction of inhibitor in total substrate interface giving 50% inhibition.
T1 sequence (O60733 1-806): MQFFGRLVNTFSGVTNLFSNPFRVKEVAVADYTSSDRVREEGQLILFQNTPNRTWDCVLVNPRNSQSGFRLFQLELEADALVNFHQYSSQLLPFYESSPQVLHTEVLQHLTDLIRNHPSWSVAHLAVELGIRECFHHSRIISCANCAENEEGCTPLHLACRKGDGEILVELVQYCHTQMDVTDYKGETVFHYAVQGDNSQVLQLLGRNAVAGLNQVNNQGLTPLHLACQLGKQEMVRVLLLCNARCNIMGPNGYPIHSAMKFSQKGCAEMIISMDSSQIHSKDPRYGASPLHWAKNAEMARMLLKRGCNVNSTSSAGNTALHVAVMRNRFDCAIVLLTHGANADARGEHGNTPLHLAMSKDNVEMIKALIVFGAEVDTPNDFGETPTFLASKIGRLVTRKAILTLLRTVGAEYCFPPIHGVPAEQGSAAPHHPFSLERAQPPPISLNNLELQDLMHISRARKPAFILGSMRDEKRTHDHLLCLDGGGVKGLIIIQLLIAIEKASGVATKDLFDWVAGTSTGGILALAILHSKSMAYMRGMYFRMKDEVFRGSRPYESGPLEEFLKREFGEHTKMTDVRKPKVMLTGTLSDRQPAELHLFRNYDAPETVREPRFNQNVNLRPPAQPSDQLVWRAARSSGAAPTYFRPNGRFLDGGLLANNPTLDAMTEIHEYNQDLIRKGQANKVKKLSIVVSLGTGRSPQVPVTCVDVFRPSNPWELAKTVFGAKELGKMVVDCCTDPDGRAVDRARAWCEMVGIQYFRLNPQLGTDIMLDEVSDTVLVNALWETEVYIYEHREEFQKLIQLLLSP
Assay type: biochemical

Row | SMILES | GVIA iPLA2 XI(50)
1 | O=C(CCCCc1ccccc1)C(F)(F)C(F)(F)F [10a, 1,1,1,2,2-Pentafluoro-7-phenyl-heptan-3-one] | 0.0073 mole fraction and 0.0073 ± 0.0007 mole fraction
2 | O=C(CCCCCc1ccccc1)C(F)(F)C(F)(F)F [10b, 1,1,1,2,2-Pentafluoro-8-phenyl-octan-3-one] | 0.0065 mole fraction
3 | O=C(CCCCCCc1ccccc1)C(F)(F)C(F)(F)F [10c, 1,1,1,2,2-Pentafluoro-9-phenyl-nonan-3-one] | 0.0065 mole fraction
4 | O=C(CCCCCc1ccccc1)C(F)(F)F [12a, 1,1,1-Trifluoro-7-phenylheptan-2-one] | 0.0025 mole fraction
5 | O=C(CCCCCCc1ccccc1)C(F)(F)F [12b, 1,1,1-Trifluoro-8-phenyloctan-2-one] | 0.0018 mole fraction
6 | CCCCCCOc1ccc(CCC(=O)C(F)(F)F)cc1 [19a, 1,1,1-Trifluoro-4-(4-hexyloxy-phenyl)-butan-2-one] | 0.0328 ±0.0035 mole fraction
7 | CCCCCCCCCCCCCCCC(=O)C(F)(F)F [compound 6, palmitoyl trifluoromethyl ketone, reference compound] | 0.0195 mole fraction
8 | CCCCCCOc1ccc(CCC(=O)C(F)(F)C(F)(F)F)cc1 [compound 21, 1,1,1,2,2-Pentafluoro-5-(4-hexyloxy-phenyl)-pentan-3-one] | 0.0075 mole fraction
9 | CCCCCCCCCCCCCCC(F)C(=O)C(F)(F)F (stereo not shown) [compound 26, 1,1,1,3-Tetrafluoro-heptadecan-2-one] | 0.0011 mole fraction

Same assay, conditions: ratio of XI(50) values, 26 vs 6

Row | SMILES | potency as inhibitor of GVIA iPLA2 relative to trifluoro derivative 6
10 | CCCCCCCCCCCCCCC(F)C(=O)C(F)(F)F (stereo not shown) [compound 26, 1,1,1,3-Tetrafluoro-heptadecan-2-one] | approximately twenty-fold
